# Values joined by “and” are separate entries in the source; they are usually repeats but may differ in a detail not shown here. Equal values may be shown once. Read-outs that look alike come from different tables or passages of the source. Bridge positions count the residues as written; N and C are the ends. Square brackets hold non-standard residues; d marks the D form. Peptide text beside a SMILES is read from it. * marks the point of attachment. X1 = CC(C)CCC[C@@H](C)[C@H]1CC[C@H]2[C@@H]3CC=C4C[C@@H](OC(=O)CCOCCOCCOCCOCCOCCOCCOCCOCCOCCOCCOCCOCCNC(=O)CSCCC(=O)*)CC[C@]4(C)[C@H]3CC[C@]12C; PhLac = O=C(O)[C@@H](O)Cc1ccccc1
# Key:
# GLP-1 Receptor = GLP-1 Receptor (Homo sapiens, UniProt P43220); assay: Functional assay, cAMP induction (luciferase reporter, HEK293) at GLP-1 receptor; assay type: cell-based
# Sequence of GLP-1 Receptor (P43220 24-463): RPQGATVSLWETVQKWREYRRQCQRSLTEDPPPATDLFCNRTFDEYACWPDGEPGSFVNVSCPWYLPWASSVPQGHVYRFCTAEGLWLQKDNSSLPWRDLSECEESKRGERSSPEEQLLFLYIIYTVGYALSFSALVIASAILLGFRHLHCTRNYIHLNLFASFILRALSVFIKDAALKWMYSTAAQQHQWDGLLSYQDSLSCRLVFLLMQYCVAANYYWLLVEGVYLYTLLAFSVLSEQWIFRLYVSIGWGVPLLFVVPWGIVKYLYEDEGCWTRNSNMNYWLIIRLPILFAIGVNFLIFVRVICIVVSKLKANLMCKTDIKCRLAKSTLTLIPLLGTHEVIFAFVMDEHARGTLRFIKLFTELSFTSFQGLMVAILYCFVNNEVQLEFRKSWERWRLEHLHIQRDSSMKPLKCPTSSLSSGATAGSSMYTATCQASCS
# Glucagon Receptor = Glucagon Receptor (Homo sapiens, UniProt P47871); assay: cAMP inhibition: antagonism of glucagon-induced cAMP at glucagon receptor; assay type: cell-based; set-up: expressed in transfected cells; host or cells: HEK293
# Sequence of Glucagon Receptor (P47871 26-477): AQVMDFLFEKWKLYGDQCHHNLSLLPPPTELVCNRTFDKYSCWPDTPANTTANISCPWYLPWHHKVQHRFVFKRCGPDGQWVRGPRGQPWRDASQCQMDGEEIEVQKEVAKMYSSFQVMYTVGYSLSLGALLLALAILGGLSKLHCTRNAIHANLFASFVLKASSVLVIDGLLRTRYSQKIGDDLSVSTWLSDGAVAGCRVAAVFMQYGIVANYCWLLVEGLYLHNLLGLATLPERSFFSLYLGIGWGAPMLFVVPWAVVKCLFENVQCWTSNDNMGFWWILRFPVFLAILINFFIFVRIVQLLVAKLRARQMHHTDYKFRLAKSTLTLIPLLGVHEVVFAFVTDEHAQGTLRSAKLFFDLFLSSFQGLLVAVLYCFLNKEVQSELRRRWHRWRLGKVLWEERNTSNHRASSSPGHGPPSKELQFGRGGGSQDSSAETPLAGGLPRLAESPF
# [1] = GLP-1 agonism EC50 (nM), Table 16
# [2] = Glucagon antagonism IC50 (nM, inhibit 0.2-0.8 nM glucagon), Table 18
# [3] = GLP-1 agonism EC50 (nM), Table 19
# [4] = Glucagon antagonism IC50 (nM, inhibit 0.8 nM glucagon), Table 19
# [5] = GLP-1 agonism EC50 (nM), Table 17
# [6] = Glucagon antagonism IC50 (nM, inhibit 0.2-0.8 nM glucagon), Table 17
smiles,measurement,setting,value
"CSCC[C@H](NC(=O)[C@H](CC(C)C)NC(=O)[C@H](Cc1c[nH]c2ccccc12)NC(=O)[C@H](CCC(N)=O)NC(=O)[C@@H](NC(=O)[C@H](Cc1ccccc1)NC(=O)[C@H](CC(=O)O)NC(=O)[C@@H]1CCCCNC(=O)CC[C@H](NC(=O)[C@H](CC(=O)O)NC(=O)[C@H](CC(C)C)NC(=O)[C@H](Cc2ccc(O)cc2)NC(=O)[C@H](CCCCN)NC(=O)[C@H](CO)NC(=O)[C@H](Cc2ccc(O)cc2)NC(=O)[C@H](CCC(=O)O)NC(=O)[C@H](CO)NC(=O)[C@@H](NC(=O)[C@@H](N)Cc2ccccc2)[C@@H](C)O)C(=O)N[C@@H](CCCNC(=N)N)C(=O)N[C@@H](CCCNC(=N)N)C(=O)N[C@@H](C)C(=O)N1)C(C)C)C(=O)N[C@@H](CC(N)=O)C(=O)N[C@H](C(=O)NCC(=O)N1CCC[C@H]1C(=O)N[C@@H](CO)C(=O)N[C@@H](CO)C(=O)NCC(=O)N[C@@H](C)C(=O)N1CCC[C@H]1C(=O)N1CCC[C@H]1C(=O)N1CCC[C@H]1C(=O)N[C@@H](CO)C(N)=O)[C@@H](C)O [E9, E16K20(lactam)]",EC50,GLP-1 Receptor; [1],36.4 ± 3.5 nM
same,IC50,"Glucagon Receptor; Glucagon antagonism IC50 (nM, inhibit 0.2-0.8 nM glucagon), Table 16, combined results of three assays",42 ± 3.6 nM
"CSCC[C@H](NC(=O)[C@H](CC(C)C)NC(=O)[C@H](Cc1c[nH]c2ccccc12)NC(=O)[C@H](CCC(N)=O)NC(=O)[C@@H](NC(=O)[C@H](Cc1ccccc1)NC(=O)[C@H](CC(=O)O)NC(=O)[C@H](CCC(N)=O)NC(=O)[C@H](C)NC(=O)[C@H](CCCNC(=N)N)NC(=O)[C@H](CCCNC(=N)N)NC(=O)[C@@H]1CCC(=O)NCCCC[C@H](NC(=O)[C@H](CO)NC(=O)[C@H](Cc2ccc(O)cc2)NC(=O)[C@H](CCC(=O)O)NC(=O)[C@H](CO)NC(=O)[C@@H](NC(=O)[C@@H](N)Cc2ccccc2)[C@@H](C)O)C(=O)N[C@@H](Cc2ccc(O)cc2)C(=O)N[C@@H](CC(C)C)C(=O)N[C@@H](CC(=O)O)C(=O)N1)C(C)C)C(=O)N[C@@H](CC(N)=O)C(=O)N[C@H](C(=O)NCC(=O)N1CCC[C@H]1C(=O)N[C@@H](CO)C(=O)N[C@@H](CO)C(=O)NCC(=O)N[C@@H](C)C(=O)N1CCC[C@H]1C(=O)N1CCC[C@H]1C(=O)N1CCC[C@H]1C(=O)N[C@@H](CO)C(N)=O)[C@@H](C)O [E9, K12E16(lactam)] (H-FTSEYSKYLDERRAQDFVQWLMNTGPSSGAPPPS-NH2; lactam 7-11; N-terminus assumed)",EC50,"GLP-1 Receptor; GLP-1 (nM), Table 13, GLP-1 agonist activity",63 nM
same,IC50,"Glucagon Receptor; Table 13, glucagon antagonist activity, read-out: Glu",2010 nM
"CSCC[C@H](NC(=O)[C@H](CC(C)C)NC(=O)[C@H](Cc1c[nH]c2ccccc12)NC(=O)[C@H](CCC(N)=O)NC(=O)[C@@H](NC(=O)[C@H](Cc1ccccc1)NC(=O)[C@H](CC(=O)O)NC(=O)[C@@H]1CCCCNC(=O)CC[C@H](NC(=O)[C@H](CC(=O)O)NC(=O)[C@H](CC(C)C)NC(=O)[C@H](Cc2ccc(O)cc2)NC(=O)[C@H](CCCCN)NC(=O)[C@H](CO)NC(=O)[C@H](Cc2ccc(O)cc2)NC(=O)[C@H](CC(=O)O)NC(=O)[C@H](CO)NC(=O)[C@@H](NC(=O)[C@@H](O)Cc2ccccc2)[C@@H](C)O)C(=O)N[C@@H](CCCNC(=N)N)C(=O)N[C@@H](CCCNC(=N)N)C(=O)N[C@@H](C)C(=O)N1)C(C)C)C(=O)N[C@@H](CC(=O)O)C(=O)N[C@H](C(=O)NCC(=O)N1CCC[C@H]1C(=O)N[C@@H](CO)C(=O)N[C@@H](CO)C(=O)NCC(=O)N[C@@H](C)C(=O)N1CCC[C@H]1C(=O)N1CCC[C@H]1C(=O)N1CCC[C@H]1C(=O)N[C@@H](CO)C(=O)N[C@@H](CCCCNC(=O)CCSCC(=O)NCCOCCOCCOCCOCCOCCOCCOCCOCCOCCOCCOCCOCCC(=O)O[C@H]1CC[C@@]2(C)C(=CC[C@H]3[C@@H]4CC[C@H]([C@H](C)CCCC(C)C)[C@@]4(C)CC[C@@H]32)C1)C(N)=O)[C@@H](C)O [K40-chol G(6-40), [PLA6, E16K20(lactam), D28, K40(COCH2CH2S-Chol)]G(6-40) amide] (H-[PhLac]TSDYSKYLDERRAKDFVQWLMDTGPSSGAPPPSK(X1)-NH2; lactam 11-15)",EC50,"GLP-1 Receptor; GLP-1 agonism EC50 (nM), Table 23, standard deviation in ( )",47 nM
same,IC50,"Glucagon Receptor; Glucagon antagonism IC50 (nM, inhibit 0.4 nM glucagon), Table 23, standard deviation in ( )",312 nM
"CSCC[C@H](NC(=O)[C@H](CC(C)C)NC(=O)[C@H](Cc1c[nH]c2ccccc12)NC(=O)[C@H](CCC(N)=O)NC(=O)[C@@H](NC(=O)[C@H](Cc1ccccc1)NC(=O)[C@H](CC(=O)O)NC(=O)[C@@H]1CCCCNC(=O)CC[C@H](NC(=O)[C@H](CC(=O)O)NC(=O)[C@H](CC(C)C)NC(=O)[C@H](Cc2ccc(O)cc2)NC(=O)[C@H](CCCCN)NC(=O)[C@H](CO)NC(=O)[C@H](Cc2ccc(O)cc2)NC(=O)[C@H](CCC(=O)O)NC(=O)[C@H](CO)NC(=O)[C@@H](NC(=O)[C@H](Cc2ccccc2)NC(=O)[C@@H](NC(=O)CNC(=O)[C@H](CCC(=O)O)NC(=O)[C@H](C)NC(=O)[C@@H](N)Cc2c[nH]cn2)[C@@H](C)O)[C@@H](C)O)C(=O)N[C@@H](CCCNC(=N)N)C(=O)N[C@@H](CCCNC(=N)N)C(=O)N[C@@H](C)C(=O)N1)C(C)C)C(=O)N[C@@H](CC(=O)O)C(=O)N[C@H](C(N)=O)[C@@H](C)O [[A2E3, E16K20(Lactam), D28]G(1 ~ 29)]",EC50,"GLP-1 Receptor; GLP-1 agonism EC50 (nM), Table 18",0.11 nM
same,IC50,Glucagon Receptor; [2],129 ± 106 nM
same,"character of antagonism (partial antagonist, wrapped cell)",Glucagon Receptor; Table 18,partial
same,"character of antagonism (partial antagonist, wrapped cell)",Glucagon Receptor; Table 19,partial
same,"character of antagonism (partial antagonist, wrapped cell)",Glucagon Receptor; Table 20,partial
"CSCC[C@H](NC(=O)[C@H](CC(C)C)NC(=O)[C@H](Cc1c[nH]c2ccccc12)NC(=O)[C@H](CCC(N)=O)NC(=O)[C@@H](NC(=O)[C@H](Cc1ccccc1)NC(=O)[C@H](CC(=O)O)NC(=O)[C@H](CCCCN)NC(=O)[C@H](C)NC(=O)[C@H](CCCNC(=N)N)NC(=O)[C@H](CCCNC(=N)N)NC(=O)[C@H](CCC(=O)O)NC(=O)[C@H](CC(=O)O)NC(=O)[C@H](CC(C)C)NC(=O)[C@H](Cc1ccc(O)cc1)NC(=O)[C@H](CCCCN)NC(=O)[C@H](CO)NC(=O)[C@H](Cc1ccc(O)cc1)NC(=O)[C@H](CCC(=O)O)NC(=O)[C@H](CO)NC(=O)[C@@H](NC(=O)[C@@H](N)Cc1ccccc1)[C@@H](C)O)C(C)C)C(=O)N[C@@H](CC(N)=O)C(=O)N[C@H](C(=O)NCC(=O)N1CCC[C@H]1C(=O)N[C@@H](CO)C(=O)N[C@@H](CO)C(=O)NCC(=O)N[C@@H](C)C(=O)N1CCC[C@H]1C(=O)N1CCC[C@H]1C(=O)N1CCC[C@H]1C(=O)N[C@@H](CO)C(N)=O)[C@@H](C)O [[E9, E16, K20] G(6-39)]",EC50,GLP-1 Receptor; [1],1040 ± 11.9 nM
same,Glucagon antagonism IC50(nM) (inhibit 0.2-0.8 nM glucagon),"Glucagon Receptor; Table 16, combined results of three assays",weak agonist
"CSCC[C@H](NC(=O)[C@H](CC(C)C)NC(=O)[C@H](Cc1c[nH]c2ccccc12)NC(=O)[C@H](CCC(N)=O)NC(=O)[C@@H](NC(=O)[C@H](Cc1ccccc1)NC(=O)[C@H](CC(=O)O)NC(=O)[C@@H]1CCCCNC(=O)CC[C@H](NC(=O)[C@H](CC(=O)O)NC(=O)[C@H](CC(C)C)NC(=O)[C@H](Cc2ccc(O)cc2)NC(=O)[C@H](CCCCN)NC(=O)[C@H](CO)NC(=O)[C@H](Cc2ccc(O)cc2)NC(=O)[C@H](CCC(=O)O)NC(=O)[C@H](CO)NC(=O)[C@@H](NC(=O)[C@H](Cc2ccccc2)NC(=O)[C@@H](NC(=O)CN)[C@@H](C)O)[C@@H](C)O)C(=O)N[C@@H](CCCNC(=N)N)C(=O)N[C@@H](CCCNC(=N)N)C(=O)N[C@@H](C)C(=O)N1)C(C)C)C(=O)N[C@@H](CC(=O)O)C(=O)N[C@H](C(N)=O)[C@@H](C)O [[E9, E16K20(lactam), D28]G(4 ~ 29)] (H-GTFTSEYSKYLDERRAKDFVQWLMDT-NH2; lactam 13-17; N-terminus assumed)",EC50,GLP-1 Receptor; [3],151 ± 8.8 nM
same,IC50,"Glucagon Receptor; Glucagon IC50 (nM), Table 14",10 to 30 nM
same,IC50,Glucagon Receptor; [4],12.7 ± 1.1 nM
"CSCC[C@H](NC(=O)[C@H](CC(C)C)NC(=O)[C@H](Cc1c[nH]c2ccccc12)NC(=O)[C@H](CCC(N)=O)NC(=O)[C@@H](NC(=O)[C@H](Cc1ccccc1)NC(=O)[C@H](CC(=O)O)NC(=O)[C@@H]1CCCCNC(=O)CC[C@H](NC(=O)[C@H](CC(=O)O)NC(=O)[C@H](CC(C)C)NC(=O)[C@H](Cc2ccc(O)cc2)NC(=O)[C@H](CCCCN)NC(=O)[C@H](CO)NC(=O)[C@H](Cc2ccc(O)cc2)NC(=O)[C@H](CC(=O)O)NC(=O)[C@H](CO)NC(=O)[C@@H](NC(=O)[C@@H](O)Cc2ccccc2)[C@@H](C)O)C(=O)N[C@@H](CCCNC(=N)N)C(=O)N[C@@H](CCCNC(=N)N)C(=O)N[C@@H](C)C(=O)N1)C(C)C)C(=O)N[C@@H](CC(=O)O)C(=O)N[C@H](C(N)=O)[C@@H](C)O [[PLA6, D9, E16K20(lactam), D28]G(6-29)] (H-[PhLac]TSDYSKYLDERRAKDFVQWLMDT-NH2; lactam 11-15)",EC50,"GLP-1 Receptor; GLP-1 EC50 (nM), Table 14",5 to 25 nM
same,EC50,GLP-1 Receptor; [5],6.9 nM and 4.2 nM
same,EC50,GLP-1 Receptor; [3],10.6 ± 0.97 nM
same,EC50,"GLP-1 Receptor; GLP-1 agonism EC50 (nM), Table 21",5 to 28 nM
same,IC50,"Glucagon Receptor; Glucagon IC50 (nM), Table 14",10 to 30 nM
same,IC50,"Glucagon Receptor; Glucagon antagonism IC50(nM) (inhibit 0.2-0.8 nM glucagon), Table 21",5 to 27 nM
same,IC50,"Glucagon Receptor; Glucagon antagonism IC50 (nM, inhibit 0.4 nM glucagon), Table 22",5 to 27 nM
same,IC50,Glucagon Receptor; [4],13.7 ± 1.2 nM
same,IC50,Glucagon Receptor; [6],11.7 ± 2.8 nM
same,IC50,Glucagon Receptor; [2],5.5 nM
"CSCC[C@H](NC(=O)[C@H](CC(C)C)NC(=O)[C@H](Cc1c[nH]c2ccccc12)NC(=O)[C@H](CCC(N)=O)NC(=O)[C@@H](NC(=O)[C@H](Cc1ccccc1)NC(=O)[C@H](CC(=O)O)NC(=O)[C@H](CCC(N)=O)NC(=O)[C@H](C)NC(=O)[C@H](CCCNC(=N)N)NC(=O)[C@H](CCCNC(=N)N)NC(=O)[C@@H]1CCC(=O)NCCCC[C@H](NC(=O)[C@H](CO)NC(=O)[C@H](Cc2ccc(O)cc2)NC(=O)[C@H](CC(=O)O)NC(=O)[C@H](CO)NC(=O)[C@@H](NC(=O)[C@@H](O)Cc2ccccc2)[C@@H](C)O)C(=O)N[C@@H](Cc2ccc(O)cc2)C(=O)N[C@@H](CC(C)C)C(=O)N[C@@H](CC(=O)O)C(=O)N1)C(C)C)C(=O)N[C@@H](CC(=O)O)C(=O)N[C@H](C(N)=O)[C@@H](C)O [[PLA6, D9, K12E16(Lactam), D28]G(6-29)] (H-[PhLac]TSDYSKYLDERRAQDFVQWLMDT-NH2; lactam 7-11)",EC50,GLP-1 Receptor; [5],38.5 ± 7.6 nM
same,IC50,Glucagon Receptor; [6],58.3 ± 3.3 nM
